Earlier results on 1 substance are cited in article PMC11609630 (Cancer Discovery, 2024).

The subject of this data set is patients with TNBC.

On to “sacituzumab govitecan: TROP2-targeting antibody–drug conjugate”, for which, where the note is “cohort of relapsed patients with TNBC”, the “gain in ORR compared with chemotherapy” value is listed as 30%. Further, for the setting “such as neutropenia and leukopenia”, the “patients experiencing adverse events of grade 3 or higher” value is given as “more than 50%”.
